≈ marks a conversion by molar mass, not a printed value.
How the values were obtained:
[1] = Assay of kinetic solubility; assay type: physicochemical; settings: aqueous buffer, kinetic from dmso stock, pH 3.5 phosphate buffer, 25° C.
Method: The stock solutions of the test compound and the standard progesterone were prepared in DMSO at the concentration of 10 mM.
30 μL of stock solutions at 10 mM of the test compounds and standard substance were placed in order into their proper 96-well plate. 970 μL phosphate buffer at the specified pH was added to the proper vial of the sample plate. The assay was performed in duplicate. A stirring stick was added to each vial and the teflon/silicone plug was capped. The sample tray was then placed in the Eppendorf Thermomixer Comfort and shaken at 1100 RPM at 25° C. for 2 hours. After 2 hours, plugs were removed, a big magnet was used to remove the stirring sticks, and samples were transferred from the sample plate to the filter plate. Vacuum pump was used to create negative pressure and filtered the samples. Transferred 5 μL of the filtrate to the new sample plate, then added 5 μL DMSO and 490 μL water/acetonitrile (V/V=1/1) to dilute the solvent. The dilution factor may be adjusted according to the solubility values of the substances to be tested or the strength of its LC-MS signal response.
From the 10 mM DMSO stock solution, 15 μL of that was transferred into the empty plate and 485 μL DMSO was added to prepare a 300 μM standard solution. From the 300 μM standard solution plate, 5 μL of that was transferred to another empty plate and 5 μL phosphate buffer at specified pH and 490 μL water/acetonitrile (V/V=1/1) dilution solvent were added to the standard solution to get a final concentration of 3 μM. The concentration of the standard solution may be adjusted according to the strength of its LC-MS signal response.
The sample plate was placed into the sample tray of the automatic sampler and the samples were evaluated by LC-MS/MS analysis.
All calculations were carried out by Microsoft Excel.
The sample filtrate was analyzed and quantified against a standard of known concentrations using LC-MS spectral peaks to identify and quantify. The solubility values of the control drug and the compounds to be tested were calculated as the following formula: • [Sample]: concentration of the sample • AREASample: peak area of the sample • INJ VOLStd: standard sample injection volume • DFSample: sample dilution factor • [STD]: standard substance concentration • AREAStd: peak area of standard substance • INJ VOLSample: sample injection volume

hNav1.8 = hNav1.8 (Homo sapiens (Human), UniProt Q9Y5Y9); assay: Manual patch clamp, Method 1 (CHO cell line stably expressing hNav1.8); assay type: cell-based; settings: for inhibition at 0.1 µM: 100 nM
Source text: The patch clamp technique is known as the “gold standard” for studying ion channels, and it uses glass microelectrodes to seal the cell membrane to measure the currents of various membrane channel. […] Patch clamp technology can evaluate the inhibition strength of different compounds on different states of Navs by measuring the changes of membrane channel currents after different compounds bind to different states of Navs.
The representative compounds of the present invention used stable CHO or HEK293 cell lines transfected with specific ion channels to measure the effect of the compounds on Nav1.8 currents by manual patch clamp test, to evaluate their inhibition strength.
The assay protocol of manual patch clamp is as follows:
CHO cell lines with stable expression of hNav1.8 were cultured in F12 medium containing 10% fetal bovine serum at a constant temperature of 37° C., and the carbon dioxide concentration was maintained at 5%. The old culture medium was removed and washed once with PBS, then 1 mL 0.25%-Trypsin-EDTA solution was added and incubated at 37° C. for 1 min. When the cells were detached from the bottom of the dish, 5 mL of the complete medium preheated at 37° C. was added, and the aggregated cells were separated by gently blowing with a straw. The cell suspension was transferred into a sterile centrifuge tube and centrifuged at 1000 rpm for 5 min to collect cells. The cells were then inoculated into a cell culture dish with a diameter of 6 cm (2.5×10^5 cells/petri dish, 5 mL medium) for expansion or maintenance.
In order to maintain the electrophysiological activity of the cells, the cell density must be less than 80%.
The cells were separated with 0.25%-Trypsin-EDTA before the assay, and 5×10^3 cells were seeded on a cover slip and cultured in a 24-well plate (final volume: 500 μL) for 18 h. Then the assay was conducted.
The compounds prepared in the examples of the present invention were dissolved in dimethyl sulfoxide (DMSO) and prepared into DMSO stock solution with a concentration of 10 mM for assay. And it was diluted to various concentrations with extracellular solution (140 mM NaCl, 3.5 mM KCl, 1 mM MgCl2, 2 mM CaCl2), 10 mM Glucose, 10 mM HEPES, 1.25 mM NaH2PO4, pH=7.4 regulated by NaOH), and the final concentration of DMSO in each compound sample was 0.10% or less.
A capillary glass pipette (BF150-86-10, Sutter Instruments) was pulled into a recording electrode with a micropipette puller (P97, Sutter Instruments). The micromanipulator (MP285, Sutter Instruments) was manipulated under an inverted microscope (IX71, Olympus) to make the recording electrode contact the cell and negative pressure suction was applied to achieve a GQ seal. Then, rapid capacitance compensation was performed, and negative pressure was continued, cell membrane was broken by suction, and whole cell recording mode was formed. Then the slow capacitance was compensated and the membrane capacitance and series resistance were recorded without leakage compensation. When the whole cell recording current was stabilized, dosing was initiated, and the next concentration was detected after acting 5 minutes of each drug concentration. Multiple cells were independently repeated during the recording period. All electrophysiological assays were performed at room temperature. Specifically, 6 concentrations (measuring IC50) or 2 concentrations (preliminary screening) were set for each compound, and the percentage of inhibition of sodium channels was determined by calculating the relative percentage of peak current generated before and after each concentration compound treated cells, and the IC50 value or percentage of inhibition at a specific concentration was calculated using IGOR pro software.

Human Nav1.8 ion channel = Human Nav1.8 ion channel (Homo sapiens (Human), UniProt Q9Y5Y9); assay: Manual patch clamp, Method 2 (HEK293 cells stably expressing human Nav1.8, resting state); assay type: cell-based; settings: Method 2, HEK293-hNav1.8, resting state, 1 μM TTX; read-out: IC50 inhibitory activity against hNav1.8
[2] = system: postoperative pain model in rats; assay: Efficacy test in postoperative pain model in rats (mechanical allodynia, PWT); assay type: in vivo, Sprague-Dawley male rats; settings: single oral 30 mg/kg, at 2 h and 4 h after administration
Method: Sprague-Dawley male rats, purchased from Zhejiang Vital River Laboratory Animal Technology Co., LTD
Compounds of the example 10, 14, 16, 31 of the invention were weighted and prepared into solutions of 3 mg/mL using 5% DMSO (Anhui Senrise Technologies Co., Ltd)+30% Solutol HS15 (Beijing Ouhe Technology Co., LTD.)+65% water for injection, and administered at a volume of 10 mL/kg by gavage. The dosage was 30 mg/kg.
Animals were anesthetized with Zoletil 50+ Xylazine Hydrochloride (20 mg/kg+8 mg/kg, intraperitoneally injected). The surgical area on the plantar skin of the left hind paw was disinfected three times with iodophor and 70% ethanol, and the surgery was started after the skin was dry.
A longitudinal incision about 1 cm was made towards the toes starting from 0.5 cm away from the heel of the left hind paw. After the skin was incised, the flexor digitorum brevis was raised and longitudinal blunt injury was caused. After hemostasis by pressing, the wound was sutured. After surgery, animals were placed on an electric warm pad and 5 mL of physiological saline was injected subcutaneously to prevent dehydration. 24 h after modeling, all animals (including the normal control group) were tested for base mechanical allodynia (PWT). The modeling animals without mechanical hypersensitivity (PWT greater than 5 g) were excluded and […] were selected and randomly divided into 5 groups, with 9 animals in each group except 5 in the normal group (negative control group).
The animals were weighed and administered orally at a volume of 10 mL/kg. Except normal control animals, other animals were given a single dose of compounds, and mechanical allodynia was performed by test fibers on all groups of animals at 1 h, 2 h and 4 h after dosing. The rats were placed individually in a plexiglass box with a grid at the bottom to ensure that the paws of the rats could be tested. The rats would acclimate for 15 minutes before the test. After the acclimation was completed, the test fibers were used to test on the plantar center of the rat's left hind paw. Pressed the test fiber vertically against the skin and applied force to bend the fiber for 6 to 8 seconds, with 5 second intervals between each test. The rapid withdrawal of the animal's paws during the test was recorded as a pain response. The animal's paw withdrawal when the fibers left the animal's skin was also recorded as a pain response. If the animal moves or walks around, it's not recorded as a pain response, and the test should be repeated.
Mechanical hyperalgesia was expressed as the paw withdrawal threshold (PWT) in the rat behavioral test, which was calculated according to the following formula:
50% response threshold (g)=(10^(Xf+kδ)/10,000 • Xf=final test fiber value used in the test • k=table value (Chaplan et al. 1994, page 62) • δ=mean deviation
Data were collected with excel software and analyzed with Prism 7.0 (Graph pad software, Inc.) software by two-way ANOVA followed by Dunnett multiple comparison test.

[3] = Stability assay for human liver microsomes in vitro; assay type: in vitro ADME; settings: 1 μM compound, 0.5 mg/mL liver microsomes, read-out: Human liver microsome stability T1/2
Method: • Human liver microsomes, purchased from Corning or Xenotech, stored in a −80° C. refrigerator. • Nicotinamide adenine dinucleotide phosphate (NADPH), Chem-impex international, 00616 • Control compounds: testosterone, diclofenac, propafenone
• Water bath (HH-60, Guohua, Changzhou, China) • Pipette workstation (PP-550DS, Apricot, Covina, USA) • Centrifuge (5810R, Eppendorf, Hamburg, Germany) • Mass Spectrometer (Sciex API 4000, Singapore) • High Performance Liquid Chromatography (LC 20-AD, Shimadzu, Kyoto, Japan) • Sampler (ADDA, Apricot Designs, California, USA)
• Stock solution: 10 mM in DMSO • Working solution concentration preparation: 10 mM stock solution was diluted to 100 μM with 100% acetonitrile (organic phase content: 99% ACN, 1% DMSO)
Two 96-well incubation plates were named T60 incubation plate and NCF60 incubation plate.
445 μL microsomal working solution (liver microsomal protein concentration: 0.56 mg/mL) was added to the T60 and NCF60 incubation plates respectively, then the incubation plates above were placed in a water bath at 37° C. for pre-incubation approximately 10 minutes.
After the pre-incubation finished, 5 μL of the test compound working solution was added to the T60 and NCF60 incubation plates respectively, and mixed well. 50 μL potassium phosphate buffer was added to each well on the NCF60 incubation plate to start the reaction. 180 μL termination solution (acetonitrile solution containing 200 ng/mL tolbutamide and 200 ng/mL labetalol) and 6 uL working solution of NADPH regeneration system were added to the TO termination plate, and 54 μL samples were removed from the T60 incubation plate to the TO termination plate (TO sample generated). The reaction was initiated by adding 44 μL of NADPH regenerating system working solution per well on the T60 incubation plate. Only 54 μL microsomal working solution, 6 uL NADPH regeneration system working solution, and 180 μL termination solution were added to the Blank plate. Therefore, in the samples of the test or control compounds, the final reaction concentration of the compounds, testosterone, diclofenac and propafenone was 1 μM, the concentration of the liver microsomes was 0.5 mg/mL, and the final concentration of DMSO and acetonitrile in the reaction system was 0.01% (v/v) and 0.99% (v/v), respectively.
After incubation for an appropriate time (e.g. 5, 10, 20, 30, and 60 minutes), 180 μL of termination solution (acetonitrile solution containing 200 ng/mL tolbutamide and 200 ng/mL labetalol) was added to the sample hole of each termination plate, respectively. After that, 60 μL sample was removed from the T60 incubation plate to terminate the reaction.
All sample plates were shaken evenly and centrifuged at 3220×g for 20 min. Then 80 μL supernatant was taken from each well and diluted to 240 μL pure water for LC-MS/MS analysis.
All samples were injected for analysis.

[4] = Method 1, CHO-hNav1.8, read-out: Inhibition rate of hNav1.8

Sequence of hNav1.8 (Q9Y5Y9 whole entry): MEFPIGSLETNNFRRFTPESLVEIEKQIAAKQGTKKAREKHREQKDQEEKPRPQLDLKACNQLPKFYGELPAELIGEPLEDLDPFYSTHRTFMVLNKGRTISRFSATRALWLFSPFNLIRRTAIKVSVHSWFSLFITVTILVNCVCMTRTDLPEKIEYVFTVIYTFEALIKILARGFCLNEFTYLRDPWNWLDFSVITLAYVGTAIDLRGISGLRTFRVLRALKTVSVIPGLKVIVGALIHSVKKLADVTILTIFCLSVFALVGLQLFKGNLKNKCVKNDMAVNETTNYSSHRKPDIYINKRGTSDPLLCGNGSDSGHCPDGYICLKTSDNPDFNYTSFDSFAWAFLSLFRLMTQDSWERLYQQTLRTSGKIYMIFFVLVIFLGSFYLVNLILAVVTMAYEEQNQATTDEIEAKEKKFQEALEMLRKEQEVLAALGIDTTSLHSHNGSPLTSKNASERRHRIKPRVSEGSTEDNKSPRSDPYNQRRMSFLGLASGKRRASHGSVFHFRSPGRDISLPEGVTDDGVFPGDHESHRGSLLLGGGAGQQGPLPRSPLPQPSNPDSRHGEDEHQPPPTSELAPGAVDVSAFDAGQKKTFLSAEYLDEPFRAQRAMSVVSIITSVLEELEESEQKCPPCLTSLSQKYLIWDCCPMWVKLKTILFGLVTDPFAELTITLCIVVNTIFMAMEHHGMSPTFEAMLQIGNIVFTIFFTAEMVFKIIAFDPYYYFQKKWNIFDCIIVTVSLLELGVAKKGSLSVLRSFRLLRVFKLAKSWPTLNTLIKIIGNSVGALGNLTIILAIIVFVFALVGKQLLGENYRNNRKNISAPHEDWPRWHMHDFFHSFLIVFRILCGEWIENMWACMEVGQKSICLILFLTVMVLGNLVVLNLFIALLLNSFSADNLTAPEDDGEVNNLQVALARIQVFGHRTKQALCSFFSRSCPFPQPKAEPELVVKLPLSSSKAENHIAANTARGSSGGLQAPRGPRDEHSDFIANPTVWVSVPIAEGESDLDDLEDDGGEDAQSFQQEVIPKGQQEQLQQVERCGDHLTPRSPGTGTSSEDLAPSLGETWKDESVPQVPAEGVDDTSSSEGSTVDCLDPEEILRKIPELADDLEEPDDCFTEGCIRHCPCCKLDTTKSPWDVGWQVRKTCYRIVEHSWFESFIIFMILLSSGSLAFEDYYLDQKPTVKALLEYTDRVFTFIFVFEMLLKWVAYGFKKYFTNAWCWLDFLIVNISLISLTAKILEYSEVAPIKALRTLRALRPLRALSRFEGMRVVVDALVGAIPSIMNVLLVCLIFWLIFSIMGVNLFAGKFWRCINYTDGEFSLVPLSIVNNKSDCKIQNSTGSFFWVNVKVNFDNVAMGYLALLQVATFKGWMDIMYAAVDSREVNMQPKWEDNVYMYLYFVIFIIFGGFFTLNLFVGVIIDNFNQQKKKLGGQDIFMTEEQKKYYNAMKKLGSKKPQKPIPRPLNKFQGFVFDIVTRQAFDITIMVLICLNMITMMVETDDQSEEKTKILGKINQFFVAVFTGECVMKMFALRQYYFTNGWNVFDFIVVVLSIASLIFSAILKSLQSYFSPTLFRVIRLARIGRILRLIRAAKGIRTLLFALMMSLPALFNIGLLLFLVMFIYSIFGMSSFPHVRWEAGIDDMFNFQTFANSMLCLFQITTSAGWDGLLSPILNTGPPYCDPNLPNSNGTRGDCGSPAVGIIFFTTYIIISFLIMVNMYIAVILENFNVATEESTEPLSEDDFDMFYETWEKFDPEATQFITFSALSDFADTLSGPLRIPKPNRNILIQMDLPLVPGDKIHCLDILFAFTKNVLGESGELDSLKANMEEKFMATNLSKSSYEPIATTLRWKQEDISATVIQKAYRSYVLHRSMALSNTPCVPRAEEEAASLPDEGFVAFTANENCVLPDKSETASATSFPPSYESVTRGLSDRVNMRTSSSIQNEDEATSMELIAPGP

## NS(=O)(=O)c1cccc(NC(=O)c2cc3ccccc3nc2Oc2ccc(F)cc2Cl)c1 [Example 30, 2-(2-chloro-4-fluorophenoxy)-N-(3-sulfamoylphenyl)quinoline-3-carboxamide, reference compound]
[1]
  solubility kinetic at 2 h: < 0.18 µM
hNav1.8; [4]
  inhibition at 0.1 µM: 94%
Human Nav1.8 ion channel
  IC50: 9.5 nM

## NS(=O)(=O)c1cc(NC(=O)c2cc(Cl)c(C(F)(F)F)cc2N2CCCC(F)(F)CC2)ccn1 [Example 31, 5-chloro-2-(4,4-difluoroazepan-1-yl)-N-(2-sulfamoylpyridin-4-yl)-4-trifluoromethylbenzamide, reference compound]
[1]
  solubility kinetic at 2 h: 0.69 µM (≈ 0.354 µg/mL)
hNav1.8; [4]
  inhibition at 0.1 µM: 97.1%
[2]
  Inhibition of mechanical hyperalgesia induced by postoperative pain model: inhibited mechanical hyperalgesia

## CNS(=O)(=O)c1cc(NC(=O)c2cc3ccccc3nc2N2CCCC(F)(F)CC2)ccn1 [Example 28, 2-(4,4-difluoroazepan-1-yl)-N-(2-(N-methylsulfamoyl)pyridin-4-yl)quinoline-3-carboxamide]
[1]
  solubility kinetic at 2 h: 131 µM (≈ 62.3 µg/mL)
hNav1.8; [4]
  inhibition at 0.1 µM: 94.2%
Human Nav1.8 ion channel
  IC50: 11.4 nM

## CS(=N)(=O)c1cc(NC(=O)c2cc3ccccc3nc2N2CCCC(F)(F)CC2)ccn1 (stereo not shown) [Example 26, 2-(4,4-difluoroazepan-1-yl)-N-(2-(S-methylsulfonimidoyl)pyridin-4-yl)quinoline-3-carboxamide]
[1]
  solubility kinetic at 2 h: 127 µM (≈ 58.4 µg/mL)
hNav1.8; [4]
  inhibition at 0.1 µM: 91.5%
Human Nav1.8 ion channel
  IC50: 8 nM
[3]
  half-life at 1 µM: 1.17 h

## NC(=O)c1cc(NC(=O)c2cc3ccccc3nc2N2CCCC(F)(F)CC2)ccc1F [Example 09, N-(3-carbamoyl-4-fluorophenyl)-2-(4,4-difluoroazepan-1-yl)quinoline-3-carboxamide]
[1]
  solubility kinetic at 2 h: 157 µM (≈ 69.6 µg/mL)
hNav1.8; 10 nM, Method 1, CHO-hNav1.8, read-out: Inhibition rate of hNav1.8
  inhibition at 0.01 µM: 91.3%
hNav1.8; Method 1, CHO-hNav1.8, manual patch clamp, resting state, read-out: IC50 inhibitory activity against hNav1.8
  IC50: 1 nM
Human Nav1.8 ion channel
  IC50: 0.918 nM
[3]
  half-life at 1 µM: 0.372 h

## COc1cc2cc(C(=O)Nc3ccnc(C(N)=O)c3)c(N3CCCC(F)(F)CC3)nc2cc1OC [Example 24, N-(2-carbamoylpyridin-4-yl)-2-(4,4-difluoroazepan-1-yl)-6,7-dimethoxyquinoline-3-carboxamide]
[1]
  solubility kinetic at 2 h: 9.88 µM (≈ 4.8 µg/mL)
hNav1.8; [4]
  inhibition at 0.1 µM: 51%
Human Nav1.8 ion channel
  IC50: 97.1 nM
[3]
  half-life at 1 µM: > 2.42 h
